Measured values as given in the supplement of paper PMC10307832.

Assays:
Experiment in all cases: relative viability (nuclei count vs DMSO), 5 days (fraction); higher = more cells survive
[1] = compound: O=C(NC1CCNCC1)c1n[nH]cc1NC(=O)c1c(Cl)cccc1Cl [AT-7519] + Nc1nc2[nH]cc(CCc3ccc(C(=O)N[C@@H](CCC(=O)O)C(=O)O)cc3)c2c(=O)[nH]1 [Pemetrexed] (partner 0.2 µM)
Method in brief: (§1)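 Lung cancer cell lines in 1536-well plates were dosed by pin tool the day after seeding, either with one drug alone or with a fixed anchor-drug dose plus five library-drug doses (not always all listed) in √10 steps. After 5 days, cells were fixed and their nuclei stained in one step (final 0.05% Triton X-100, 1% formaldehyde, 1 ug/ml Hoechst), then counted on 4× images. Relative viability is the nuclei count in treated wells divided by that in vehicle wells. Values are medians of duplicate plates.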

[2] = compound: O=C(NC1CCNCC1)c1n[nH]cc1NC(=O)c1c(Cl)cccc1Cl [AT-7519] + C[C@@H](Oc1cc(-c2cnn(C3CCNCC3)c2)cnc1N)c1c(Cl)ccc(F)c1Cl [Crizotinib] (partner 1 µM)
Method in brief: as §1

[3] = compound: C1=CC2=C(C=C(C(=C2N=C1)O)N=NC3=CC4=C(C=C3)C=C(C=C4)S(=O)(=O)O)S(=O)(=O)O + C[C@]1(O)C[C@@H](c2nc(-c3ccc4ccc(-c5ccccc5)nc4c3)c3c(N)nccn32)C1 [Linsitinib] (partner 1 µM)
Method in brief: as §1

[4] = compound: O=C(NC1CCNCC1)c1n[nH]cc1NC(=O)c1c(Cl)cccc1Cl [AT-7519] + O=C(c1cc(Cc2n[nH]c(=O)c3ccccc23)ccc1F)N1CCN(C(=O)C2CC2)CC1 [Olaparib] (partner 8 µM)
Method in brief: as §1

Cell Line	relative viability ([1]; first compound 0.01 µM)	relative viability ([1]; first compound 0.03162 µM)	relative viability ([1]; first compound 0.3162 µM)	relative viability ([1]; first compound 1 µM)	relative viability ([2]; first compound 0.01 µM)	relative viability ([2]; first compound 0.03162 µM)	relative viability ([2]; first compound 0.3162 µM)	relative viability ([2]; first compound 1 µM)	relative viability ([3]; first compound 0.08 µM)	relative viability ([3]; first compound 0.253 µM)	relative viability ([3]; first compound 0.8 µM)	relative viability ([3]; first compound 2.53 µM)	relative viability ([3]; first compound 8 µM)	relative viability ([4]; first compound 0.01 µM)	relative viability ([4]; first compound 0.03162 µM)	relative viability ([4]; first compound 0.3162 µM)	relative viability ([4]; first compound 1 µM)
NCI-H2023	0.203	0.233	0.203	0.111	0.702	0.697	0.605	0.125	0.675	0.593	0.69	0.675	0.653	0.46	0.485	0.386	0.128
ChaGo-K-1	0.27	0.267	0.276	0.254	1.08	1.12	0.792	0.743	–	–	–	–	–	0.379	0.403	0.431	0.403
NCI-H2342	0.789	0.743	0.762	0.687	–	–	–	–	–	–	–	–	–	0.391	0.427	0.454	0.443
NCI-H1299	–	–	–	–	1.03	0.997	0.947	0.31	1.04	0.98	0.937	0.955	0.986	0.97	1	0.935	1.09
NCI-H1650	0.376	0.35	0.323	0.197	1.26	0.956	0.576	0.169	–	–	–	–	–	0.899	0.776	0.75	0.193
SW 900	0.453	0.425	0.452	0.478	–	–	–	–	–	–	–	–	–	1.06	0.8	0.622	0.371
NCI-H727	–	–	–	–	0.968	0.875	0.6	0.27	0.223	0.287	0.371	0.32	0.269	0.711	0.772	0.7	0.365
NCI-H1648	0.806	–	0.666	0.691	–	–	–	–	–	–	–	–	–	0.852	–	0.696	0.49
NCI-H522	0.992	0.943	1.03	0.929	–	–	–	–	–	–	–	–	–	0.75	0.595	0.664	0.498
NCI-H1395	0.847	0.896	0.899	0.558	–	–	–	–	1.11	1.18	1.34	1	1.18	0.374	0.471	0.413	0.419
A549	–	–	–	–	0.635	0.867	0.55	0.25	0.7	0.515	0.617	0.645	0.576	0.312	0.309	0.315	0.368
NCI-H2170	0.263	0.276	0.241	0.25	1.16	1.26	1.18	1.18	–	–	–	–	–	0.585	0.59	0.608	0.562
NCI-H1563	0.743	0.868	0.81	0.807	0.857	0.809	1.02	0.702	1.35	1.16	1.29	1.28	1.21	–	–	–	–
ABC-1	–	–	–	–	1.06	1.35	0.591	0.183	0.8	0.632	0.86	0.688	0.738	1.02	0.646	0.608	0.454
